Laboratory results reported in patent US6191147A, “Pyrazole compounds and uses thereof” (PPD Discovery, Inc., priority 1999, dated 2001).

Key:
FPTase = FPTase (Homo sapiens, UniProt P49354+P49356); assay: FPTase inhibition ([3H]FPP transfer to H-Ras); type: biochemical; settings: 40 μM test compound (unless otherwise indicated)
Method: (§1) For those assays, the reaction mixtures contained the following components in 50 μl:0.25 μM [^3 H]GGPP (sp. act. 8-10 Ci/mmol), 2.5 μM Ras-CVLL, 50 mM Tris-Cl, pH 7.7, 20 mM KCl, 5 mM MgCl2, 5 μM ZnCl2, 1 mM DTT, 0.5 mM Zwittergent 3-14 and the desired amount of the compound to be tested for inhibitory potential. After pre-equilibrating the assay mixture at 30° C. in the absence of the enzyme, the reaction was initiated by addition of the enzyme (75 ng). Following an about 10 minute incubation at about 30° C., the reactions were terminated by addition of about 0.5 ml of about 4% SDS. About 40 mg of bovine brain membranes was added to the samples to enhance recovery during precipitation. […] Reactions were never allowed to proceed to more than 10% completion based on the limiting substrate. Assays for the inhibition studies of FPTase were performed analogous the GGPTase I inhibition studies, except [^3 H]GGPP was replaced with 0.25 μM of [^3 H]FPP (sp. act. 8-10 ci/mmol) and Ras-CVLL was replaced with 1 μM H-Ras.
(§2) Using the method described above, the GGPTase I and FPTase inhibitory activities of some of the compounds of the present invention were measured. The results of these measurements are provided in Tables I-VI, wherein a value of 100 indicates 100% GGPTase I or FPTase inhibition. Unless otherwise indicated, 40 μM concentration of a test compound is used. The term "alpha" refers to the position of R^1 substituent (e.g., 3,4-dichlorophenyl in Table I) on the nitrogen atom in the pyrazole ring that results in the shortest retention time using the HPLC gradient reported above, where as the term "beta" refers to the position of R^1 substituent (e.g., 3,4-dichlorophenyl in Table I) on the nitrogen atom in the pyrazole ring that results in a longer HPLC retention time than the alphα-regioisomer. Mixtures of regioisomers and/or enantiomers are used unless indicated otherwise using the above alpha and beta notations. The term "N/D" means not determined. In Tables I-VI, R^6 group indicated by *1 refers to {[N"-(1'-oxo-1'-pyrid-3-yl)methyl]-N'-carbamoyl}-3-aminopropyl moiety.

GGPTase I = target: T1, GGPTase I (Rattus norvegicus, UniProt P53610+Q04631); assay: GGPTase I inhibition ([3H]GGPP transfer to Ras-CVLL); type: biochemical; settings: 40 μM test compound (unless otherwise indicated)
T1 construct: made in house; host or cells: Sf9 insect cells (recombinant baculovirus, co-infection)
Method: as §1, §2

| inhibition at 40 µM (FPTase) [%] | inhibition at 40 µM (GGPTase I) [%] | SMILES |
| --- | --- | --- |
| 78 |  | CS(=O)(=O)CCC(NC(=O)CCc1cc(-c2cccnc2)n[nH]1)C(N)=O (centres unmarked) |
|  | 24 | NC(=O)C(Cc1ccc(O)cc1)NC(=O)CCc1cc(-c2cccnc2)n[nH]1 (centres unmarked) |
| 83 | 24 | NC(=O)C(Cc1c[nH]c2ccccc12)NC(=O)CCc1cc(-c2cccnc2)n[nH]1 (centres unmarked) |
| 57 |  | NC(=O)C(CCCNC(=O)NC(=O)c1cccnc1)NC(=O)CCCCc1cc(-c2cccnc2)n[nH]1 (centres unmarked) [IX, R^6 = *1, R^1 = HYDROGEN] |
|  | 27 | NC(=O)C(Cc1ccccc1)NC(=O)CCCCc1cc(-c2cccnc2)n[nH]1 (centres unmarked) [IX, R^6 = BENZYL, R^1 = HYDROGEN] |
| 58 |  | NC(=O)CNC(=O)CCCCc1cc(-c2cccnc2)n[nH]1 [IX, R^6 = HYDROGEN, R^1 = HYDROGEN] |
| 78 | 33 | CC(C)C(NC(=O)CCCCc1cc(-c2cccnc2)n[nH]1)C(N)=O (centres unmarked) [IX, R^6 = ISOPROPYL, R^1 = HYDROGEN] |
| 50 |  | NC(=O)C(CCCNC(=O)NC(=O)c1cccnc1)NC(=O)CCc1cc(-c2cccnc2)n[nH]1 (centres unmarked) [X, R^6 = *1, R^1 = HYDROGEN] |
| 72 |  | CC(C)C(NC(=O)CCc1cc(-c2cccnc2)n[nH]1)C(N)=O (centres unmarked) [X, R^6 = ISOPROPYL, R^1 = HYDROGEN] |
